pKi: −log10 of the molar value.
Target: Protease (Human immunodeficiency virus 1, UniProt Q9YQ12)
Assay: Inhibition of Human immunodeficiency virus 1 protease

Protease, sequence (Q9YQ12 whole entry): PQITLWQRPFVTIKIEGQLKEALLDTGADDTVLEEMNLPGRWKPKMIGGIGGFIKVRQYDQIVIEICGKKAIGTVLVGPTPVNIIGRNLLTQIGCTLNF

| Structure (SMILES) | pKi |
| --- | --- |
| O=C1N(Cc2ccccc2)C(Cc2ccccc2)C(O)C(C(Br)Cc2ccccc2)N1Cc1ccccc1 (centres undefined) | 6.73 |
| O=C1NC(CCc2ccccc2)C(O)C(Cc2ccccc2)N1Cc1ccccc1 (centres undefined) | 7.18 |
| N#Cc1cccc(CN2C(=O)NC(CCc3ccccc3)C(O)C2Cc2ccccc2)c1 (centres undefined) | 7.82 |
| Nc1cccc(CN2C(=O)NC(CCc3ccccc3)C(O)C2Cc2ccccc2)c1 (centres undefined) | 6.80 |
| Nc1cccc(CN2C(=O)NC(Cc3ccccc3)C(O)C2CCc2ccccc2)c1 (centres undefined) | 8.21 |
| N#Cc1cccc(CN2C(=O)N(Cc3cccc(C#N)c3)C(Cc3ccccc3)C(O)C2CCc2ccccc2)c1 (centres undefined) | 7.96 |
| CC(=O)c1cccc(CN2C(=O)N(Cc3cccc(C(C)=O)c3)C(Cc3ccccc3)C(O)C2CCc2ccccc2)c1 (centres undefined) | 9.04 |
| NC(=O)c1cccc(CN2C(=O)N(Cc3cccc(C(N)=O)c3)C(Cc3ccccc3)C(O)C2CCc2ccccc2)c1 (centres undefined) | 10.05 |
| NC(=O)c1cccc(CN2C(=O)N(Cc3cccc(C(N)=O)c3)C(Cc3ccc(F)cc3)C(O)C2CCc2ccc(F)cc2)c1 (centres undefined) | 9.51 |
| NC(=O)c1cccc(CN2C(=O)N(Cc3cccc(C(N)=O)c3)C(Cc3ccc(F)c(F)c3)C(O)C2CCc2ccc(F)c(F)c2)c1 (centres undefined) | 9.82 |
| N/C(=N/O)c1cccc(CN2C(=O)N(Cc3cccc(/C(N)=N\O)c3)C(Cc3ccc(F)cc3)C(O)C2CCc2ccc(F)cc2)c1 (centres undefined) | 10.70 |
| N/C(=N/O)c1cccc(CN2C(=O)N(Cc3cccc(/C(N)=N\O)c3)C(Cc3ccc(F)c(F)c3)C(O)C2CCc2ccc(F)c(F)c2)c1 (centres undefined) | 11.00 |
| N/C(=N/O)c1cc(CN2C(=O)N(Cc3ccc(F)c(/C(N)=N\O)c3)C(Cc3ccc(F)c(F)c3)C(O)C2CCc2ccccc2)ccc1F (centres undefined) | 10.22 |
| Nc1cccc(CN2C(=O)N(Cc3cccc(N)c3)C(Cc3ccccc3)C(O)C2CCc2ccccc2)c1 (centres undefined) | 8.77 |
| Nc1ccc(CN2C(=O)N(Cc3ccc(N)c(F)c3)C(Cc3ccccc3)C(O)C2CCc2ccccc2)cc1F (centres undefined) | 8.10 |
| CNc1cccc(CN2C(=O)N(Cc3cccc(NC)c3)C(Cc3ccccc3)C(O)C2CCc2ccccc2)c1 (centres undefined) | 7.64 |
| O=C1N(Cc2cccc(-n3cccn3)c2)C(CCc2ccccc2)C(O)C(Cc2ccccc2)N1Cc1cccc(-n2cccn2)c1 (centres undefined) | 10.00 |
| O=C1N(Cc2ccc3[nH]ncc3c2)C(CCc2ccccc2)C(O)C(Cc2ccccc2)N1Cc1ccc2[nH]ncc2c1 (centres undefined) | 10.22 |
| Cc1n[nH]c2ccc(CN3C(=O)N(Cc4ccc5[nH]nc(C)c5c4)C(Cc4ccccc4)C(O)C3CCc3ccccc3)cc12 (centres undefined) | 10.00 |
| Nc1n[nH]c2ccc(CN3C(=O)N(Cc4ccc5[nH]nc(N)c5c4)C(Cc4ccccc4)C(O)C3CCc3ccccc3)cc12 (centres undefined) | 10.52 |
| O=C1N(Cc2cccc(O)c2)C(Cc2ccccc2)C(O)C(C(F)Cc2ccccc2)N1Cc1cccc(O)c1 (centres undefined) | 7.92 |
| O=C1N(Cc2cccc(CO)c2)C(Cc2ccccc2)C(O)C(C(Br)Cc2ccccc2)N1Cc1cccc(CO)c1 (centres undefined) | 7.96 |

| Structure (SMILES) | pKi |
| --- | --- |
| N#Cc1cc(CN2C(=O)NC(CCc3ccccc3)C(O)C2Cc2ccccc2)ccc1F (centres undefined) | 6.96 |
| NC(=O)c1cccc(CN2C(=O)NC(CCc3ccccc3)C(O)C2Cc2ccccc2)c1 (centres undefined) | 8.25 |
| NC(=O)c1cc(CN2C(=O)NC(CCc3ccccc3)C(O)C2Cc2ccccc2)ccc1F (centres undefined) | 7.85 |
| N/C(=N/O)c1cccc(CN2C(=O)NC(CCc3ccccc3)C(O)C2Cc2ccccc2)c1 (centres undefined) | 9.62 |
| N/C(=N/O)c1cc(CN2C(=O)NC(CCc3ccccc3)C(O)C2Cc2ccccc2)ccc1F (centres undefined) | 8.85 |
| Cc1n[nH]c2ccc(CN3C(=O)NC(CCc4ccccc4)C(O)C3Cc3ccccc3)cc12 (centres undefined) | 9.42 |
| O=C1NC(CCc2ccccc2)C(O)C(Cc2ccccc2)N1Cc1ccc2[nH]ncc2c1 (centres undefined) | 8.92 |
| N#Cc1cc(CN2C(=O)N(Cc3ccccc3)C(Cc3ccccc3)C(O)C2CCc2ccccc2)ccc1F (centres undefined) | 7.48 |
| N#Cc1cc(CN2C(=O)N(Cc3ccccc3)C(CCc3ccccc3)C(O)C2Cc2ccccc2)ccc1F (centres undefined) | 7.40 |
| Nc1n[nH]c2cc(CN3C(=O)N(Cc4ccccc4)C(Cc4ccccc4)C(O)C3CCc3ccccc3)ccc12 (centres undefined) | 9.19 |
| Nc1n[nH]c2ccc(CN3C(=O)N(Cc4ccccc4)C(CCc4ccccc4)C(O)C3Cc3ccccc3)cc12 (centres undefined) | 9.55 |
| Cc1n[nH]c2cc(CN3C(=O)N(Cc4cccc(N)c4)C(Cc4ccccc4)C(O)C3CCc3ccccc3)ccc12 (centres undefined) | 9.89 |
| N#Cc1cccc(CN2C(=O)N(Cc3cccc(N)c3)C(Cc3ccccc3)C(O)C2CCc2ccccc2)c1 (centres undefined) | 8.80 |
| Nc1cccc(CN2C(=O)N(Cc3ccc4c(N)n[nH]c4c3)C(CCc3ccccc3)C(O)C2Cc2ccccc2)c1 (centres undefined) | 10.00 |
| N#Cc1cccc(CN2C(=O)N(Cc3cccc(C#N)c3)C(Cc3cccc(F)c3)C(O)C2CCc2ccc(F)cc2)c1 (centres undefined) | 7.85 |
| Nc1cc(CN2C(=O)N(Cc3ccc(F)c(N)c3)C(Cc3ccccc3)C(O)C2CCc2ccccc2)ccc1F (centres undefined) | 9.60 |
| Cc1ccc(C(=O)Nc2cccc(CN3C(=O)N(Cc4cccc(NC(=O)c5ccc(C)cn5)c4)C(Cc4ccccc4)C(O)C3CCc3ccccc3)c2)nc1 (centres undefined) | 10.10 |
| CN1C=CSC1C(=O)Nc1cccc(CN2C(=O)N(Cc3cccc(NC(=O)C4SC=CN4C)c3)C(Cc3ccccc3)C(O)C2CCc2ccccc2)c1 (centres undefined) | 10.52 |
| O=C1NC(Cc2ccccc2)C(O)C(CCc2ccccc2)N1Cc1ccc2cn[nH]c2c1 (centres undefined) | 7.36 |
| Nc1cccc(CN2C(=O)N(Cc3ccc4cn[nH]c4c3)C(Cc3ccccc3)C(O)C2CCc2ccccc2)c1 (centres undefined) | 10.10 |
| NC(=O)c1cccc(CN2C(=O)N(Cc3cccc(N)c3)C(Cc3ccccc3)C(O)C2CCc2ccccc2)c1 (centres undefined) | 10.22 |
| O=C1N(Cc2ccccc2)C(CCc2ccccc2)C(O)C(Cc2ccccc2)N1Cc1ccccc1 (centres undefined) | 7.82 |
